Data on 9 compounds can be found in patent publication US5721103A, “Trienoic retinoid compounds and methods” (Ligand Pharmaceuticals Incorporated, priority 1995, dated 1998).

The test has as its system RARs and RXRs. Briefly: Co-transfection assay, RAR and RXR receptors taken together. Conditions: for activity on the RARs or RXRs (in words): any of the RARs or RXRs; for RAR activity (in words): RARs. Type of test: cell-based. As for the experimental part: Utilizing the "cis-trans" or "co-transfection" assay described by Evans et al., Science, 240:889-95 (May 13, 1988), the disclosure of which is herein incorporated by reference, the retinoid compounds of the present invention were tested and found to have strong, specific activity as either selective RAR agonists, selective RXR agonists, or as pan-agonist activators of both RAR and RXR receptors. This assay is described in further detail in U.S. Pat. Nos. 4,981,784 and 5,071,773, the disclosures of which are incorporated herein by reference.
In the co-transfection assay, a cloned cDNA for an IR (e.g., human RARα, RARβ, RXRγ) under the control of a constitutive promoter (e.g., the SV 40 promoter) is introduced by transfection (a procedure to induce cells to take up foreign genes) into a background cell substantially devoid of endogenous IRs. This introduced gene directs the recipient cells to make the IR protein of interest. A second gene is also introduced (co-transfected) into the same cells in conjunction with the IR gene. This second gene, comprising the cDNA for a reporter protein, such as firefly luciferase (LUC), is controlled by an appropriate hormone responsive promoter containing a hormone response element (HRE). This reporter plasmid functions as a reporter for the transcription-modulating activity of the target IR. Thus, the reporter acts as a surrogate for the products (mRNA then protein) normally expressed by a gene under control of the target receptor and its native hormone.
The co-transfection assay can detect small molecule agonists or antagonists of target IRs. Exposing the transfected cells to an agonist ligand compound increases reporter activity in the transfected cells. This activity can be conveniently measured, e.g., by increasing luciferase production, which reflects compound-dependent, IR-mediated increases in reporter transcription. […] . Increasing concentrations of a suspected antagonist will decrease the reporter signal (e.g., luciferase production). The co-transfection assay is therefore useful to detect both agonists and antagonists of specific IRs. Furthermore, it determines not only whether a compound interacts with a particular IR, but whether this interaction mimics (agonizes) or blocks (antagonizes) the effects of the native regulatory molecules on target gene expression, as well as the specificity and strength of this interaction.
To determine RAR and/or RXR agonist activity of the compounds of the present invention, the CV-1 cells were transiently transfected by calcium phosphate coprecipitation according to the procedure of Berger et al., 41 J. Steroid Biochem. Mol. Biol., 733 (1992) with the following receptor expressing plasmids: pRShRARα: Giguere et at., 330 Nature, 624 (1987); pRShRARβ and pRShRARγ, Ishikawa et al., 4 Mol. Endocrin., 837 (1990); pRShRXRα, Mangelsdorf et at., 345 Nature, 224 (1990); and pRSmRXRβ and pRSmRXRγ, Mangelsdorf et al., 6 Genes & Devel., 329 (1992), the disclosures of which are herein incorporated by reference. Each of these receptor expressing plasmids was co-transfected at a concentration of 5 ng/well, along with a basal reporter plasmid at 100 ng/well, the internal control plasmid pRS-β-Gal at 50 ng/well and filler DNA, pGEM at 45 ng/well.

`COc1ccc(/C(C)=C/C=C/C(C)=C/C(=O)O)cc1OC` [A, (2E,4E,6E)-3-methyl-7-(3,4-dimethoxyphenyl)octa-2,4,6-trienoic acid, reference compound]: the “activity on the RARs or RXRs (in words)” value is “no, or virtually no, activity”. With `COc1ccc(/C(C)=C/C=C/C(C)=C/C(=O)O)cc1` [B, (2E,4E,6E)-3-methyl-7-(4-methoxyphenyl)octa-2,4,6-trienoic acid, reference compound], the “activity on the RARs or RXRs (in words)” value is “no, or virtually no, activity”. Regarding `COc1cc(C)c(/C=C/C=C/C=C(\C)C(=O)O)c(C)c1C` [C, (2E,4E,6E)-2-methyl-7-(2,3,6-trimethyl-4-methoxyphenyl)hepta-2,4,6-trienoic acid, reference compound], the “activity on the RARs or RXRs (in words)” value was “no, or virtually no, activity”. On to `CCC/C(=C/C=C/C(C)=C/C(=O)O)c1cc(C(C)(C)C)cc(C(C)(C)C)c1` [Compound 28, (2E, 4E, 6Z)-7-(3,5-Di-t-butylphenyl)-3-methyldeca-2,4,6-trienoic acid], for which, under “RXRs”, the “RXR activity (in words)” value is “very potent and selective RXR active compound”. In the case of `CC(/C=C/C=C1\CCOc2c1cc(C(C)(C)C)cc2C(C)(C)C)=C\C(=O)O` [Compound 39, (2E,4E,6E)-6-(6,8,-Di-t-butylchroman-4-ylidene)-3-methylhexa-2,4,6-trienoicacid], the “RAR activity (in words)” value was “extremely potent RAR active compounds”.

For `CC(/C=C/C=C(\C)c1cc(C(F)(F)F)cc(C(F)(F)F)c1)=C\C(=O)O` [Compound 41, (2E, 4E, 6E)-7-(3,5-Di-trifluoromethylphenyl)-3-methylocta-2,4,6-trienoic acid], the “RAR activity (in words)” value is recorded as “extremely potent RAR active compounds”.

For `C/C(=C/C=C/C(C)=C/C(=O)O)c1cc(C(C)C)cc(C(C)C)c1` [Compound 43, (2E, 4E, 6Z)-7-(3,5-Di-isopropylphenyl)-3-methylocta-2,4,6-trienoic acid], the “potency profile in comparison to 9-cis retinoic acid (in words)” value (versus 9-cis, pan-agonist) is recorded as “superior potency profile”.

As for `COc1c(C(C)(C)C)cc(/C(C)=C/C=C/C(C)=C/C(=O)O)cc1C(C)(C)C` [Compound 47, (2E, 4E, 6E) -3-Methyl-7-(3,5-di-t-butyl-4-methoxyphenyl)octa-2,4,6-trienoic acid], the “RAR activity (in words)” value is “extremely potent RAR active compounds”. The “selectivity among RARs (in words)” value (RARβ and RARγ) was “selectivity on RARβ and RARγ”.

Take `COC(/C=C/C=C(\C)c1ccc(C(C)(C)C)cc1)=C/C(=O)O` [D, (2E,4E,6E)-3-methoxy-7-(4-t-butylphenyl)octa-2,4,6-trienoic acid, reference compound]: the “activity on the RARs or RXRs (in words)” value is listed as “no, or virtually no, activity”.
